Laboratory results: PMC12040169 (PLOS Biology, 2025)

Experiments:
[1] = test system: T1, CTL2-GFP (C. trachomatis L2/434/Bu, GFP-expressing); assay: microbe, parasite or virus in culture; design: Intracellular C. trachomatis growth in HeLa cells, bulk GFP fluorescence relative to DMSO; conditions: Chlamydia trachomatis, HeLa, 28.5 h; bulk GFP, mean of 2; read-out: % of control remaining
T1 construct: L2/434/Bu, GFP-expressing
Procedure: MICs were calculated as described above.

[2] = test system: T2, C. trachomatis L2/434/Bu expressing GFP (CTL2-GFP); assay: microbe, parasite or virus in culture; design: C. trachomatis total inclusion area by high-content imaging, normalised to DMSO; conditions: Chlamydia trachomatis, HeLa, 28.5 h; total inclusion area; read-out: % of control remaining
T2 construct: L2/434/Bu GFP intracellular growth in HeLa cells
Method in brief: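 Read-out combines bulk fluorescence and imaging: GFP tracks chlamydial growth, resorufin tracks host cell viability. Plates were then fixed and Hoechst-stained so inclusions and nuclei could be imaged and counted per well.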

in vitro = assay: in vitro; design: Viability of infected HeLa host cells, resazurin conversion, bulk resorufin fluorescence relative to DMSO; conditions: human, hela cells; bulk resorufin, mean of 2

Structure (SMILES): CC1=C(C)C(=NNC(N)=S)C(C)=C(C)C1=NNC(N)=S [CBK261262]
- activity at 1 µM [1]: 116%
- activity at 5 µM [1]: 39.1%
- activity at 10 µM [1]: 12.7%
- activity at 1 µM [2]: 96.7%
- activity at 5 µM [2]: 31.5%
- activity at 10 µM [2]: 17.1%
- viability at 28.5 h, 1 µM (in vitro): 90.9%
- viability at 28.5 h, 5 µM (in vitro): 90.8%
- viability at 28.5 h, 10 µM (in vitro): 90.6%

Structure (SMILES): COc1nccnc1NS(=O)(=O)c1ccc(Nc2c([N+](=O)[O-])cc([N+](=O)[O-])c3nonc23)cc1 [CBK261441]
- activity at 1 µM [1]: 33.2%
- activity at 5 µM [1]: 18%
- activity at 10 µM [1]: 10.6%
- activity at 1 µM [2]: 42.6%
- activity at 5 µM [2]: 28.1%
- activity at 10 µM [2]: 24.2%
- viability at 28.5 h, 1 µM (in vitro): 90.8%
- viability at 28.5 h, 5 µM (in vitro): 95.9%
- viability at 28.5 h, 10 µM (in vitro): 94.2%

Structure (SMILES): Cc1noc(NS(=O)(=O)c2ccc(NC(=O)COc3ccc(Cl)cc3Cl)cc2)c1C [CBK262142]
- activity at 1 µM [1]: 103%
- activity at 5 µM [1]: 26.5%
- activity at 10 µM [1]: 14.3%
- activity at 1 µM [2]: 102%
- activity at 5 µM [2]: 49.8%
- activity at 10 µM [2]: 24.6%
- viability at 28.5 h, 1 µM (in vitro): 95.1%
- viability at 28.5 h, 5 µM (in vitro): 97.3%
- viability at 28.5 h, 10 µM (in vitro): 100%

Structure (SMILES): COc1ccc(-c2csc(/C(C#N)=C/Nc3ccc(S(=O)(=O)Nc4nccs4)cc3)n2)cc1 [CBK262374]
- activity at 1 µM [1]: 146%
- activity at 5 µM [1]: 131%
- activity at 10 µM [1]: 113%
- activity at 1 µM [2]: 134%
- activity at 5 µM [2]: 95%
- activity at 10 µM [2]: 96.5%
- viability at 28.5 h, 1 µM (in vitro): 99.9%
- viability at 28.5 h, 5 µM (in vitro): 95.6%
- viability at 28.5 h, 10 µM (in vitro): 96.2%

Structure (SMILES): CCc1nnc(NS(=O)(=O)c2ccc(N/C=C3\C(=O)N(c4ccc(Cl)cc4)N=C3C)cc2)s1 [CBK262416]
- activity at 1 µM [1]: 91.1%
- activity at 5 µM [1]: 26.1%
- activity at 10 µM [1]: 13.2%
- activity at 1 µM [2]: 102%
- activity at 5 µM [2]: 50.5%
- activity at 10 µM [2]: 27%
- viability at 28.5 h, 1 µM (in vitro): 91.9%
- viability at 28.5 h, 5 µM (in vitro): 94.3%
- viability at 28.5 h, 10 µM (in vitro): 93.3%

Structure (SMILES): Cc1cc(NS(=O)(=O)c2ccc(Nc3nc(-c4cccs4)cs3)cc2)no1 [CBK262504]
- activity at 1 µM [1]: 96.7%
- activity at 5 µM [1]: 25.1%
- activity at 10 µM [1]: 15.9%
- activity at 1 µM [2]: 112%
- activity at 5 µM [2]: 45.8%
- activity at 10 µM [2]: 19.5%
- viability at 28.5 h, 1 µM (in vitro): 86.5%
- viability at 28.5 h, 5 µM (in vitro): 92.2%
- viability at 28.5 h, 10 µM (in vitro): 88.4%

Structure (SMILES): O=C(NCCCn1ccnc1)c1cc(-c2ccc(Br)cc2)nc2ccccc12 [CBK262645]
- activity at 1 µM [1]: 138%
- activity at 5 µM [1]: 87.8%
- activity at 10 µM [1]: 31.9%
- activity at 1 µM [2]: 126%
- activity at 5 µM [2]: 95.8%
- activity at 10 µM [2]: 45.4%
- viability at 28.5 h, 1 µM (in vitro): 103%
- viability at 28.5 h, 5 µM (in vitro): 107%
- viability at 28.5 h, 10 µM (in vitro): 94.9%

Structure (SMILES): COc1cc(NS(=O)(=O)c2ccc(N/C=C3/CCc4ccccc4C3=O)cc2)nc(OC)n1 [CBK263376]
- activity at 1 µM [1]: 108%
- activity at 5 µM [1]: 26%
- activity at 10 µM [1]: 22.7%
- activity at 1 µM [2]: 83.5%
- activity at 5 µM [2]: 48.7%
- activity at 10 µM [2]: 12.5%
- viability at 28.5 h, 1 µM (in vitro): 101%
- viability at 28.5 h, 5 µM (in vitro): 99.1%
- viability at 28.5 h, 10 µM (in vitro): 78.6%

Structure (SMILES): Cc1cc(OCC(=O)Nc2ccc(S(=O)(=O)Nc3onc(C)c3C)cc2)cc(C)c1Cl [CBK263491]
- activity at 1 µM [1]: 59.3%
- activity at 5 µM [1]: 15.2%
- activity at 10 µM [1]: 5.2%
- activity at 1 µM [2]: 55.4%
- activity at 5 µM [2]: 25.5%
- activity at 10 µM [2]: 11.8%
- viability at 28.5 h, 1 µM (in vitro): 103%
- viability at 28.5 h, 5 µM (in vitro): 100%
- viability at 28.5 h, 10 µM (in vitro): 117%

Structure (SMILES): CCOC(=O)c1c(C)n(-c2ccc(C)cc2)c2ccc(O)c(CN(C)C)c12 [CBK263499C]
- activity at 1 µM [1]: 124%
- activity at 5 µM [1]: 104%
- activity at 10 µM [1]: 38.4%
- activity at 1 µM [2]: 89%
- activity at 5 µM [2]: 95.9%
- activity at 10 µM [2]: 12.4%
- viability at 28.5 h, 1 µM (in vitro): 101%
- viability at 28.5 h, 5 µM (in vitro): 93.4%
- viability at 28.5 h, 10 µM (in vitro): 90.3%
